This passage reports TD50 and carcinogen call results from PubChem BioAssay AID1745844 (Carcinogenic Potency Database (CPDB), 2022).

Each structure is given as a SMILES string. Calls of active or inactive are those of the source. No rule for the calls is given here.

The data set has as its system rodent lifetime carcinogenesis bioassay, tumor incidence TD50. Kind of data set: chronic cancer bioassays in animals – CPDB, compiled studies (AID 1745844).

What is called TD50 is the 50% point of the dose-response relation for the toxic effect studied. As to `Cc1cc(O)cc(C)c1N(C)C`, the TD50 was 220 mg/kg/day (inactive) (mouse, strain B6AKF1, females, oral dosing, site: any site (literature study), lesion: several types, types named in the paper, dosed 76 weeks, study length 76 weeks); 1190 mg/kg/day (inactive) (mouse, strain B6AKF1, males, oral dosing, site: any site (literature study), lesion: several types, types named in the paper, dosed 76 weeks, study length 76 weeks); 207 mg/kg/day (inactive) (mouse, strain B6AKF1, males, oral dosing, site: liver, lesion: hepatoma, dosed 76 weeks, study length 76 weeks); 265 mg/kg/day (inactive) (mouse, strain B6C3F1, females, oral dosing, site: any site (literature study), lesion: several types, types named in the paper, dosed 76 weeks, study length 76 weeks); 265 mg/kg/day (inactive) (mouse, strain B6C3F1, females, oral dosing, site: lung, lesion: adenoma, dosed 76 weeks, study length 76 weeks); 34.8 mg/kg/day (inactive) (mouse, strain B6C3F1, males, oral dosing, site: any site (literature study), lesion: several types, types named in the paper, dosed 76 weeks, study length 76 weeks). Also, the TD50 is, setting by setting: (mouse, strain B6C3F1, males, oral dosing, site: liver, lesion: hepatoma, dosed 76 weeks, study length 76 weeks) 247 mg/kg/day (inactive); (mouse, strain B6C3F1, males, oral dosing, site: lung, lesion: adenoma, dosed 76 weeks, study length 76 weeks) 56.1 mg/kg/day (inactive). Besides, the carcinogen call is “negative (inactive)” (mouse, strain B6AKF1, females, oral dosing, site: liver, lesion: hepatoma, dosed 76 weeks, study length 76 weeks); “negative (inactive)” (mouse, strain B6AKF1, females, oral dosing, site: lung, lesion: adenoma, dosed 76 weeks, study length 76 weeks); “negative (inactive)” (mouse, strain B6AKF1, males, oral dosing, site: lung, lesion: adenoma, dosed 76 weeks, study length 76 weeks); “negative (inactive)” (mouse, strain B6C3F1, females, oral dosing, site: liver, lesion: hepatoma, dosed 76 weeks, study length 76 weeks).
As to `CC(=O)Oc1c(C)c(C)c2c(c1C)CCC(C)(CCCC(C)CCCC(C)CCCC(C)C)O2` (stereo not drawn), the carcinogen call is “negative (inactive)” (rat, strain Charles River CD (Sprague-Dawley), females, in feed, site: any site (literature study), lesion: malignant tumor, dosed 104 weeks, study length 104 weeks); “negative (inactive)” (rat, strain Charles River CD (Sprague-Dawley), females, in feed, site: any site (literature study), lesion: several types, types named in the paper, dosed 104 weeks, study length 104 weeks); “negative (inactive)” (rat, strain Charles River CD (Sprague-Dawley), females, in feed, site: liver, lesion: one or several types, types not named, dosed 52 weeks, study length 52 weeks); “negative (inactive)” (rat, strain Charles River CD (Sprague-Dawley), females, in feed, site: liver, lesion: one or several types, types not named, dosed 104 weeks, study length 104 weeks); “negative (inactive)” (rat, strain Charles River CD (Sprague-Dawley), males, in feed, site: liver, lesion: one or several types, types not named, dosed 52 weeks, study length 52 weeks); “negative (inactive)” (rat, strain Charles River CD (Sprague-Dawley), males, in feed, site: liver, lesion: one or several types, types not named, dosed 104 weeks, study length 104 weeks). In addition, the TD50 reads like this: (rat, strain Charles River CD (Sprague-Dawley), males, in feed, site: any site (literature study), lesion: malignant tumor, dosed 104 weeks, study length 104 weeks) 67800 mg/kg/day (inactive); (rat, strain Charles River CD (Sprague-Dawley), males, in feed, site: any site (literature study), lesion: several types, types named in the paper, dosed 104 weeks, study length 104 weeks) 67800 mg/kg/day (inactive).
In the case of `CC(COc1ccccc1)N(CCCl)Cc1ccccc1` (stereo not drawn), the TD50 is 5.85 mg/kg/day (mouse, strain B6C3F1, females, i.p., site: abdominal cavity, lesion: sarcoma, NOS, dosed 52 weeks, study length 84 weeks); 3.08 mg/kg/day (mouse, strain B6C3F1, females, i.p., site: any site (literature study), lesion: several types, types named in the paper, dosed 52 weeks, study length 84 weeks); 4.95 mg/kg/day (mouse, strain B6C3F1, males, i.p., site: abdominal cavity, lesion: sarcoma, NOS, dosed 51 weeks, study length 83 weeks); 2.17 mg/kg/day (mouse, strain B6C3F1, males, i.p., site: any site (literature study), lesion: several types, types named in the paper, dosed 51 weeks, study length 83 weeks); 5.84 mg/kg/day (mouse, strain B6C3F1, males, i.p., site: liver, lesion: hepatocellular adenoma + hepatocellular carcinoma + neoplastic nodule, dosed 51 weeks, study length 83 weeks); 63 mg/kg/day (mouse, strain B6C3F1, males, i.p., site: lung, lesion: alveolar/bronchiolar adenoma + alveolar/bronchiolar carcinoma, dosed 51 weeks, study length 83 weeks). Further, the TD50 (rat, strain Sprague-Dawley, females, i.p., site: any site (literature study), lesion: several types, types named in the paper, dosed 52 weeks, study length 83 weeks) amounted to 1.34 mg/kg/day; the TD50 (rat, strain Sprague-Dawley, females, i.p., site: peritoneum, lesion: sarcoma, NOS, dosed 52 weeks, study length 83 weeks) is 2.36 mg/kg/day; the TD50 (rat, strain Sprague-Dawley, males, i.p., site: any site (literature study), lesion: several types, types named in the paper, dosed 52 weeks, study length 83 weeks) is 0.555 mg/kg/day; the TD50 (rat, strain Sprague-Dawley, males, i.p., site: peritoneum, lesion: sarcoma, NOS, dosed 52 weeks, study length 83 weeks) was 0.71 mg/kg/day.
`C[C@H](CCC(=O)O)[C@H]1CC[C@H]2[C@@H]3CC[C@@H]4C[C@H](O)CC[C@]4(C)[C@H]3CC[C@]12C`: the TD50 by setting is: (mouse, strain B6C3F1, females, by gavage, site: any site (literature study), lesion: several types, types named in the paper, dosed 103 weeks, study length 105 weeks) 960 mg/kg/day (inactive); (mouse, strain B6C3F1, females, by gavage, site: liver, lesion: hepatocellular adenoma + hepatocellular carcinoma + neoplastic nodule, dosed 103 weeks, study length 105 weeks) 1140 mg/kg/day; (mouse, strain B6C3F1, females, by gavage, site: lung, lesion: alveolar/bronchiolar adenoma + alveolar/bronchiolar carcinoma, dosed 103 weeks, study length 105 weeks) 1030 mg/kg/day; (mouse, strain B6C3F1, males, by gavage, site: lung, lesion: alveolar/bronchiolar adenoma + alveolar/bronchiolar carcinoma, dosed 103 weeks, study length 105 weeks) 834 mg/kg/day; (rat, strain Fischer 344, females, by gavage, site: any site (literature study), lesion: several types, types named in the paper, dosed 103 weeks, study length 104 weeks) 686 mg/kg/day (inactive); (rat, strain Fischer 344, females, by gavage, site: liver, lesion: hepatocellular adenoma + hepatocellular carcinoma + neoplastic nodule, dosed 103 weeks, study length 104 weeks) 1890 mg/kg/day. Moreover, the TD50 by setting is: (rat, strain Fischer 344, males, by gavage, site: any site (literature study), lesion: several types, types named in the paper, dosed 103 weeks, study length 104 weeks) 501 mg/kg/day (inactive); (rat, strain Fischer 344, males, by gavage, site: liver, lesion: hepatocellular adenoma + hepatocellular carcinoma + neoplastic nodule, dosed 103 weeks, study length 104 weeks) 2250 mg/kg/day. For the same molecule, for the setting “mouse, strain B6C3F1, males, by gavage, site: any site (literature study), lesion: several types, types named in the paper, dosed 103 weeks, study length 105 weeks”, the carcinogen call was “negative (inactive)”.
In the case of `CC(/C=C/C=C(\C)C(=O)O[C@@H]1O[C@H](CO[C@@H]2O[C@H](CO)[C@@H](O)[C@H](O)[C@H]2O)[C@@H](O)[C@H](O)[C@H]1O)=C\C=C\C=C(C)\C=C\C=C(/C)C(=O)O[C@@H]1O[C@H](CO[C@@H]2O[C@H](CO)[C@@H](O)[C@H](O)[C@H]2O)[C@@H](O)[C@H](O)[C@H]1O`, the carcinogen call reads like this: (mouse, strain C57BL/6N, females, in drinking water, site: liver, lesion: hepatoma, dosed 95 weeks, study length 95 weeks) “negative (inactive)”; (mouse, strain C57BL/6N, females, in drinking water, site: lung, lesion: one or several types, types not named, dosed 95 weeks, study length 95 weeks) “negative (inactive)”; (mouse, strain C57BL/6N, males, in drinking water, site: liver, lesion: hepatoma, dosed 95 weeks, study length 95 weeks) “negative (inactive)”; (mouse, strain C57BL/6N, males, in drinking water, site: lung, lesion: one or several types, types not named, dosed 95 weeks, study length 95 weeks) “negative (inactive)”.
